Among the test systems are A498; A549; CAKI-1; DU-145; HCT-116; Hs-578T; IGROV-1; K562; KM12; MDA-MB-435; MOLT-4; Malme-3M; OVCAR-3; OVCAR-5; SF-295; SK-MEL-28; SK-OV-3; SNB-19; U-251.
Assay in all cases: growth of human tumour cells (NCI), 48 h

Structures are written as SMILES.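 A five-concentration, 48-hour dose response in 96-well plates underlies each endpoint, interpolated linearly between surrounding concentrations. Here, GI50 denotes the concentration required for 50% inhibition of growth.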 Calls of active or inactive are those of the source. Cut-off read from the data, not from the text of the source: active = GI50 up to about 1.1 µM and inactive = higher.

Take `COc1cc(Cl)c(CC(=O)c2c[nH]c3ccccc23)cc1OC`: the GI50 is 12.1 µM (inactive) with A498; > 100 µM (inactive) with A549; > 36.1 µM (inactive) in the experiment with CAKI-1; > 100 µM (inactive) in the experiment with DU-145; 98.6 µM (inactive) in the experiment on HCT-116; 23.6 µM (inactive) with Hs-578T. Further, the GI50 in the experiment on IGROV-1 is 32.4 µM (inactive); in the experiment on K562 it was > 49.2 µM (inactive); in the experiment on KM12 it was > 100 µM (inactive); in the experiment on MDA-MB-435, > 100 µM (inactive); in the experiment on MOLT-4, > 100 µM (inactive); with Malme-3M, > 100 µM (inactive). Further, the GI50 is > 51.9 µM (inactive) with OVCAR-3; > 100 µM (inactive) in the experiment on OVCAR-5; 16.1 µM (inactive) with SF-295; > 100 µM (inactive) in the experiment with SK-MEL-28; 8.07 µM (inactive) with SK-OV-3; 13.4 µM (inactive) with SNB-19. The GI50 with U-251 is 8.38 µM (inactive).

For `O=[N+]([O-])c1ccc(CSCc2ccc(Cl)cc2)cc1`, the GI50 in the experiment on A498 is > 100 µM (inactive); in the experiment with A549 it was > 100 µM (inactive); with CAKI-1 it was > 100 µM (inactive); in the experiment on DU-145 it was > 100 µM (inactive); in the experiment on HCT-116 it was 92.3 µM (inactive); in the experiment with Hs-578T it was > 100 µM (inactive). Further, the GI50 in the experiment with IGROV-1 is > 100 µM (inactive); in the experiment on K562, > 100 µM (inactive); with KM12, > 100 µM (inactive); in the experiment on MDA-MB-435, > 100 µM (inactive); in the experiment with MOLT-4, 17.5 µM (inactive); in the experiment on Malme-3M, > 100 µM (inactive). Also, the GI50 in the experiment with OVCAR-3, with OVCAR-5, with SF-295, with SK-MEL-28, in the experiment with SK-OV-3 and in the experiment with SNB-19 was > 100 µM (inactive) throughout. Also, the GI50 in the experiment with U-251 was > 100 µM (inactive).

As to `O=[As](O)(O)c1ccc(/N=N/c2ccc(O)cc2)cc1`, the GI50 with A498, in the experiment on A549, in the experiment with CAKI-1, with DU-145, in the experiment on HCT-116 and in the experiment on Hs-578T was > 100 µM (inactive) in each case. Further, the GI50 is > 100 µM (inactive) in the experiment on IGROV-1; 5.69 µM (inactive) with K562; > 100 µM (inactive) with KM12; > 100 µM (inactive) in the experiment with MDA-MB-435; 4.32 µM (inactive) with MOLT-4; > 100 µM (inactive) in the experiment with Malme-3M. The GI50 with OVCAR-3, in the experiment on OVCAR-5, with SF-295, with SK-MEL-28, with SK-OV-3 and in the experiment on SNB-19 was > 100 µM (inactive) throughout. Also, in the experiment with U-251, the GI50 was > 100 µM (inactive).

Take `CCOC(=O)CCC(NC(=O)c1ccc(OCc2ccc3nc(OC)c(OC)nc3c2)cc1)C(=O)OCC` (configuration not stated): the GI50 in the experiment on A498 is 71 µM (inactive); in the experiment with A549, > 100 µM (inactive); with CAKI-1, > 100 µM (inactive); with DU-145, 69.5 µM (inactive); in the experiment on HCT-116, 50.7 µM (inactive); with Hs-578T, 33.9 µM (inactive). Also, the GI50 is 55.8 µM (inactive) in the experiment with IGROV-1; 22.3 µM (inactive) with K562; > 100 µM (inactive) with KM12; 27.3 µM (inactive) in the experiment on MDA-MB-435; 22.7 µM (inactive) in the experiment with MOLT-4; 21.4 µM (inactive) in the experiment with Malme-3M. The GI50 with OVCAR-3 is 20.2 µM (inactive); in the experiment with OVCAR-5, > 100 µM (inactive); with SF-295, 59.4 µM (inactive); in the experiment on SK-MEL-28 it was 44.6 µM (inactive); with SK-OV-3 it was > 100 µM (inactive); in the experiment with SNB-19 it was 74.3 µM (inactive). Moreover, in the experiment on U-251, the GI50 is > 100 µM (inactive).

Turning to `C=C1OC(c2ccccc2NC)=NC12CCCCC2`, the GI50 in the experiment with A498, in the experiment on A549, in the experiment with CAKI-1, in the experiment on DU-145, with HCT-116 and with Hs-578T was > 100 µM (inactive) each time. Besides, the GI50 with IGROV-1, in the experiment with K562, in the experiment on KM12, with MDA-MB-435, in the experiment with MOLT-4 and in the experiment on Malme-3M was > 100 µM (inactive) throughout. In addition, the GI50 in the experiment with OVCAR-3, in the experiment on OVCAR-5, with SF-295, with SK-MEL-28, with SK-OV-3 and with SNB-19 was > 100 µM (inactive) each time. Also, the GI50 in the experiment on U-251 was > 100 µM (inactive).

As for `CN1C=Cc2nccc3cc4c(c1c23)OCO4`, the GI50 is 4 µM (inactive) in the experiment with A498; 2.81 µM (inactive) in the experiment with A549; 0.986 µM (active) in the experiment on CAKI-1; 5.78 µM (inactive) with DU-145; 1.5 µM (inactive) in the experiment on HCT-116; 13.5 µM (inactive) in the experiment on Hs-578T. Moreover, the GI50 in the experiment with IGROV-1 is > 20.7 µM (inactive); in the experiment with K562 it was 1.89 µM (inactive); with KM12, 2.59 µM (inactive); with MDA-MB-435, 3.25 µM (inactive); in the experiment with MOLT-4 it was 0.647 µM (active); in the experiment with Malme-3M it was 0.118 µM (active). In addition, the GI50 is 5.53 µM (inactive) with OVCAR-3; 6.61 µM (inactive) in the experiment on OVCAR-5; 1.86 µM (inactive) in the experiment with SF-295; 4.83 µM (inactive) in the experiment with SK-MEL-28; 8.39 µM (inactive) in the experiment on SK-OV-3; 1.87 µM (inactive) in the experiment on SNB-19. Also, the GI50 with U-251 is 3.09 µM (inactive).

Take `CC(NC(=O)C1(N)CCCC1)C(=O)O` (configuration not stated): the GI50 in the experiment with A498, with A549, in the experiment with CAKI-1, in the experiment on DU-145, with HCT-116 and in the experiment on Hs-578T was > 100 µM (inactive) each time. Further, the GI50 in the experiment with IGROV-1, in the experiment on K562, in the experiment with KM12, with MDA-MB-435, in the experiment on MOLT-4 and in the experiment with Malme-3M was > 100 µM (inactive) in each case. The GI50 with OVCAR-3, in the experiment on OVCAR-5, in the experiment with SF-295, with SK-MEL-28, in the experiment on SK-OV-3 and with SNB-19 was > 100 µM (inactive) throughout. Also, the GI50 in the experiment on U-251 was > 100 µM (inactive).

In the case of `CC(C)C(OC(=O)c1ccc(NCC2=CC(=O)C=CC2=O)cc1)C(C)C`, the GI50 in the experiment on A498 was 9.12 µM (inactive); in the experiment on A549, 25.2 µM (inactive); with CAKI-1, 1.4 µM (inactive); with DU-145, 18.4 µM (inactive); in the experiment on HCT-116 it was 11.7 µM (inactive); in the experiment on Hs-578T, 3.68 µM (inactive). Also, the GI50 was 1.81 µM (inactive) in the experiment on IGROV-1; 3.66 µM (inactive) in the experiment on K562; 11.5 µM (inactive) in the experiment on KM12; 4.75 µM (inactive) with MDA-MB-435; 2.01 µM (inactive) in the experiment on MOLT-4; 8.89 µM (inactive) in the experiment with Malme-3M. Also, the GI50 is 4.12 µM (inactive) with OVCAR-3; 13.3 µM (inactive) with OVCAR-5; 13.2 µM (inactive) in the experiment on SF-295; 4.05 µM (inactive) in the experiment on SK-MEL-28; 13.8 µM (inactive) in the experiment on SK-OV-3; 18.3 µM (inactive) with SNB-19. Further, the GI50 in the experiment with U-251 was 3.32 µM (inactive).

The values are drawn from ChEMBL document CHEMBL1201862, “PubChem BioAssay data set” (2004).
